Experimental data as given in PubChem BioAssay (NCI).
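Results reflect a 48-hour exposure of cells in 96-well plates to compound at five concentrations. GI50: concentration for 50% inhibition of growth. The concentration for full growth arrest is given as TGI.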

Columns and labels:
Experiment in all cases: inhibition of tumour cell growth, NCI panel, 48 h
HCT-15 colon = system: HCT-15 colon
HT29 colon = system: HT29 colon
IGROV1 ovarian = system: IGROV1 ovarian
LOX IMVI melanoma = system: LOX IMVI melanoma
M19-MEL melanoma = system: M19-MEL melanoma
MOLT-4 leukemia = system: MOLT-4 leukemia
SK-MEL-5 melanoma = system: SK-MEL-5 melanoma
MCF7 breast = system: MCF7 breast
786-0 renal = system: 786-0 renal
BT-549 breast = system: BT-549 breast

Structure (SMILES)	GI50 (HCT-15 colon)	TGI (HCT-15 colon)	GI50 (HT29 colon)	TGI (HT29 colon)	GI50 (IGROV1 ovarian)	TGI (IGROV1 ovarian)	GI50 (LOX IMVI melanoma)	TGI (LOX IMVI melanoma)	GI50 (M19-MEL melanoma)	TGI (M19-MEL melanoma)	GI50 (MOLT-4 leukemia)	TGI (MOLT-4 leukemia)	GI50 (SK-MEL-5 melanoma)	TGI (SK-MEL-5 melanoma)	TGI (MCF7 breast)	TGI (786-0 renal)	TGI (BT-549 breast)	GI50 (MCF7 breast)
N#C[S-].[La+3].c1ccc(-c2ccccn2)nc1.c1ccc(-c2ccccn2)nc1.c1ccc(-c2ccccn2)nc1	7.07 µM	> 100 µM	18.7 µM	> 100 µM	25.6 µM	60.5 µM	7.3 µM	68.3 µM	38 µM	> 100 µM	10.5 µM	> 100 µM	10.4 µM	34.8 µM	–	–	–	–
Cc1c2cc[n+](Cc3ccc(I)cc3)cc2c(C)c2c1[nH]c1ccccc12	–	> 25 µM	–	> 25 µM	–	> 25 µM	–	> 25 µM	–	1.49 µM	–	1.65 µM	–	1.33 µM	3.06 µM	–	–	–
Cc1nc2ccc(NCCN(C)C)c3c(=O)c4ccccc4n1c23	–	6.22 µM	–	10.8 µM	–	16.6 µM	–	2.96 µM	–	19.5 µM	–	22.2 µM	–	8.95 µM	23.3 µM	15.7 µM	23.6 µM	–
COc1cc2c(oc(=O)c3c4occc4cc(OC)c23)c2cccc(O)c12	–	> 100 µM	–	> 100 µM	–	> 100 µM	–	> 100 µM	–	> 100 µM	–	> 100 µM	–	> 100 µM	–	> 100 µM	–	–
Nc1nc(Cl)c2ncn(CCCC(c3ccccc3)P(=O)(O)O)c2n1 (configuration not stated)	–	> 100 µM	–	> 100 µM	–	> 100 µM	–	> 100 µM	–	> 100 µM	–	–	–	> 100 µM	–	> 100 µM	–	–
Nc1nc(SCc2ccccc2Cl)c2ncn(C3OC(CO)C(O)C3O)c2n1 (configuration not stated)	–	> 100 µM	–	> 100 µM	–	> 100 µM	–	> 100 µM	–	> 100 µM	–	> 100 µM	–	> 100 µM	–	> 100 µM	–	–
COC(=O)c1ccccc1C1CN=NC12Cc1ccc(C)cc1C2=O (configuration not stated)	–	> 100 µM	–	> 100 µM	–	> 100 µM	–	> 100 µM	–	–	–	> 100 µM	–	> 100 µM	> 100 µM	> 100 µM	> 100 µM	–
COc1cccc(NC(=O)CC(=O)NN)c1	–	> 100 µM	–	> 100 µM	–	> 100 µM	–	> 100 µM	–	–	–	> 100 µM	–	> 100 µM	> 100 µM	> 100 µM	> 100 µM	–
CCOC(=O)C(O)(CC1=NC(C(=O)OC)(C(=O)OC)C(c2cccc(C=O)c2)O1)C(=O)OCC (configuration not stated)	–	> 100 µM	–	> 100 µM	–	> 100 µM	–	> 100 µM	–	–	–	> 100 µM	–	> 100 µM	> 100 µM	> 100 µM	> 100 µM	–
Nc1cccc(-c2cc(=O)c3cc4c(cc3[nH]2)OCO4)c1	–	21.8 µM	–	4.25 µM	–	–	–	59.7 µM	–	> 100 µM	–	> 100 µM	–	–	> 100 µM	> 100 µM	> 100 µM	–
C/C(=C\C(=O)Nc1ccc2n[nH]nc2c1)Nc1ccc2n[nH]nc2c1	–	> 100 µM	–	> 100 µM	–	> 100 µM	–	> 100 µM	–	> 100 µM	–	> 100 µM	–	> 100 µM	–	> 100 µM	–	–
O=C(/C=C/c1ccc(-c2ccccc2)cc1)NCc1ccc(C(=O)NCCc2ccccc2)cc1	–	> 100 µM	–	> 100 µM	–	> 100 µM	–	> 100 µM	–	–	–	> 100 µM	–	> 100 µM	> 100 µM	> 100 µM	> 100 µM	–
CCOc1ccc2nc(NC(=O)C(=O)C3C(=O)C(CC4C(=O)c5ccccc5C4=O)C(=O)CC3(C)C)sc2c1 (configuration not stated)	–	> 100 µM	–	> 100 µM	–	> 100 µM	–	> 100 µM	–	–	–	90.4 µM	–	> 100 µM	> 100 µM	> 100 µM	> 100 µM	–
Clc1ccc(-c2cn3c(nc4ccccc43)c(-c3ccccc3)n2)cc1	–	> 100 µM	–	> 67.5 µM	–	> 78.3 µM	–	> 100 µM	–	–	–	> 100 µM	–	46.5 µM	> 100 µM	15.2 µM	50.2 µM	–
O/N=C\c1c2c(cc3c1CCC3)CCC2	–	> 100 µM	–	> 100 µM	–	> 100 µM	–	> 100 µM	–	–	–	> 100 µM	–	> 100 µM	> 100 µM	> 100 µM	> 100 µM	–
[CH3][Sn]([CH3])([CH3])[S]C(=S)N1CCOCC1	1.81 µM	> 100 µM	0.28 µM	1.5 µM	0.69 µM	8.52 µM	1.39 µM	6.75 µM	0.73 µM	31.7 µM	0.135 µM	4.05 µM	0.881 µM	2.62 µM	0.619 µM	–	–	0.0342 µM
Nc1nc(N)c2nc(CN(C=O)c3ccc(C(=O)O)cc3)cnc2n1	–	> 100 µM	–	> 100 µM	–	> 100 µM	–	> 100 µM	–	–	–	> 100 µM	–	> 100 µM	> 100 µM	> 100 µM	> 94.7 µM	–
COC(=O)c1ccccc1CC1Cc2c(C)ccc(C)c2C1=O (configuration not stated)	–	> 100 µM	–	61.6 µM	–	> 100 µM	–	37.4 µM	–	–	–	45.6 µM	–	34 µM	30 µM	> 100 µM	> 100 µM	–
ClC1=NSSC1(Cl)Cl	–	60 µM	–	> 100 µM	–	> 100 µM	–	> 100 µM	–	–	–	53.4 µM	–	28.8 µM	> 100 µM	59.3 µM	> 100 µM	–
CCOc1ccc(C2=NN(CC)C(=O)C(C3C(=O)N(c4ccccc4)N=C3C)C2)cc1 (configuration not stated)	–	> 100 µM	–	> 100 µM	–	> 100 µM	–	> 100 µM	–	> 100 µM	–	> 100 µM	–	> 100 µM	–	> 100 µM	–	–
CC(=O)OC1CCn2c1nc1cc([N+](=O)[O-])c(C)cc12 (configuration not stated)	–	> 100 µM	–	> 100 µM	–	> 100 µM	–	> 100 µM	–	–	–	> 100 µM	–	> 100 µM	> 100 µM	> 100 µM	> 100 µM	–
Brc1ccc2[nH]c3c(C4=NCCC4)nccc3c2c1	–	> 69.2 µM	–	> 38.7 µM	–	> 78.7 µM	–	> 46.6 µM	–	84.4 µM	–	> 30.4 µM	–	> 34.2 µM	> 47.6 µM	–	–	–
Cc1sc(/N=C/C2=C(O)CC(C)(C)CC2=O)nc1-c1ccccc1	–	> 100 µM	–	> 100 µM	–	> 100 µM	–	> 100 µM	–	–	–	> 100 µM	–	> 100 µM	> 100 µM	> 100 µM	> 100 µM	–
NC(Cc1ccccc1)C(=O)OCN1C(=O)C2C3C=CC(C2C1=O)C1C(=O)N(COC(=O)C(N)Cc2ccccc2)C(=O)C31 (configuration not stated)	–	78.4 µM	–	39.7 µM	–	> 100 µM	–	42.2 µM	–	–	–	51.3 µM	–	> 100 µM	39.2 µM	> 100 µM	> 100 µM	–
CNC(=S)N/N=C/C(C)=N/NC(=S)NC	–	> 100 µM	–	–	–	–	–	> 100 µM	–	> 100 µM	–	> 100 µM	–	> 100 µM	–	> 100 µM	–	–
O=C1NC(N2CCCC(CO)C2)=N/C1=C\c1cccs1 (configuration not stated)	–	> 100 µM	–	> 100 µM	–	> 100 µM	–	> 100 µM	–	–	–	> 100 µM	–	> 100 µM	> 100 µM	> 100 µM	> 100 µM	–
NC(=S)NNCC(=O)CC(O)(C(F)(F)F)C(F)(F)Cl (configuration not stated)	–	> 100 µM	–	> 100 µM	–	> 100 µM	–	> 100 µM	–	–	–	> 100 µM	–	> 100 µM	> 100 µM	> 100 µM	> 100 µM	–
CSc1c(C(C)=O)c(O)n(-c2ccc(C)cc2)c(=O)c1C#N	–	> 100 µM	–	> 100 µM	–	> 100 µM	–	> 100 µM	–	–	–	> 100 µM	–	> 100 µM	> 100 µM	> 100 µM	> 100 µM	–
CC(=O)O[C@H]1[C@@H](N2CCOCC2)C[C@H]2[C@@H]3CC=C4C[C@@H](N5CCCC5)CC[C@]4(C)[C@H]3CC[C@@]21C	–	> 100 µM	–	> 100 µM	–	> 100 µM	–	> 100 µM	–	–	–	> 100 µM	–	> 100 µM	> 100 µM	> 100 µM	> 100 µM	–
